These results are taken from patent publication US20160069865A1, “GM1 GANGLIOSIDOSIS HUMAN CELL MODEL AND USE THEREOF” (Korea Research Institute of Bioscience and Biotechnology, priority 2014, published 2016).

In experiment [1] the test system is GM1-NPCs. Nature of the experiment: Morphology of GM1-NPCs originated neurosphere after treatment with inflammasome inhibitors (phase-contrast microscopy). It is filed as cell-based, human. Particulars: GM1-iPSCs and neural progenitor cells differentiated from the same; summary statement. Here is the method: To investigate the recovery of neural damage caused by the increased activation of inflammasome related metabolic pathway in GM1, GM1-NPCs were treated with the inflammasome inhibitors IL1β antagonist (rhIL1RA) and caspase-1 inhibitor (Z-YVAD-FMK), and then the morphology of GM1-NPCs was investigated.
Particularly, the differentiation of GM1-NPCs was induced by the same manner as described in Example <4-1>. Then, the induced GM1-NPCs were cultured in the culture medium respectively treated with 1 μg/ml rhIL1RA (R&D Systems, USA) or 10 μM Z-YVAD-FMK (Merck Millipore, Germany) in order to inhibit inflammasome therein. 2˜4 weeks later, the cultured GM1-NPCs originated neurosphere was obtained. The morphology of neurosphere was observed by phase-contrast microscopy.

Experiment [2] relates to GM1-NPCs. Nature of the experiment: Gene expression pattern in GM1-NPCs treated with inflammasome inhibitor (microarray, qPCR). Conditions: for direction of the gene expression pattern change: genes with changed expression in treated GM1-NPCs, FIG. 31, FIG. 33; for share of oligo probe pairs / genes displaying the changed expression pattern: microarray, total 27,375 oligo probe pairs, GM1-NPCs treated with 10 μM Z-YVAD-FMK or 1 μg/ml rhIL1RA. It is filed as cell-based, human. As to the method:
To investigate whether or not the neural damage could be alleviated according to the increase of the activation of inflammasome related metabolic pathway in GM1, the gene expression pattern in GM1-NPCs treated with the inflammasome inhibitor was investigated.
Particularly, GM1-NPCs were differentiated according to the method described in Example <4-1>, and then treated with rhIL1RA or Z-YVAD-FMK by the same manner as described in Example <9-1>. Microarray was performed by the same manner as described in Example <7-1> in order to investigate the up- or down-regulation of the gene involved in inflammasome. […] WT-NPC was used as the normal control. As for the negative control, GM1-NPCs were treated with DMSO instead of rhIL1RA or Z-YVAD-FMK. The expression pattern (either up- or down regulation) and the mRNA expression level were investigated by the same manner as described above.
(In qPCR the cycle at which signal appears reflects the starting amount.)

The mark [3] stands for this setting: GM1-NPCs treated with 10 μM Z-YVAD-FMK, FIG. 32.

Turning to “rhIL1RA: interleukin 1-receptor antagonist protein, SEQ. ID. NO: 2, commercial (cat #280-RA-050; R&D systems)”, in the experiment with GM1-NPCs [1], the “GM1 patient-specific cell morphology and gene expression pattern” value was “recovering the GM1 patient-specific cell morphology and gene expression pattern to the normal ones”. Besides, in the experiment with GM1-NPCs [2], the “direction of the gene expression pattern change” value is “tendency to recover the abnormal gene expression in GM1 cells to the normal expression pattern” and the “share of oligo probe pairs / genes displaying the changed expression pattern” value was found to be 3.6%.

Take `COC(=O)C[C@H](NC(=O)[C@H](C)NC(=O)[C@@H](NC(=O)C(Cc1ccc(O)cc1)NC(=O)OCc1ccccc1)C(C)C)C(=O)CF` (stereo partly drawn) [Z-YVAD-FMK, methyl (3S)-3-[(2S)-2-[(2S)-2-(2-{[(benzyloxy)carbonyl]amino}-3-(4-hydroxyphenyl)propanamido)-3-methylbutanamido]propanamido]-5-fluoro-4-oxopentanoate]: the “GM1 patient-specific cell morphology and gene expression pattern” value with GM1-NPCs [1] was “recovering the GM1 patient-specific cell morphology and gene expression pattern to the normal ones”. For the same molecule, in the experiment on GM1-NPCs [2] (setting [3]), the “increase of the reduced B4GALNT expression” value is 2.6 fold and the “reduction of GLB1 expression compared with that in GM1-NPCs” value turned out to be 47%. Moreover, in the experiment on GM1-NPCs [2], the “direction of the gene expression pattern change” value is listed as “tendency to recover their gene expression patterns changed by GM1 mediated neural damage back to the normal pattern” and the “share of oligo probe pairs / genes displaying the changed expression pattern” value is recorded as 9.3%.
